Patent US7989449B2, “4,5-dihydro-oxazol-2-yl amine derivatives” (Hoffman-La Roche Inc., priority 2008, dated 2011)
Where a name gives a salt, the structure may show the parent alone.

Molecular target: T1, 6his-tagged full length BACE 1 from SF9 cells (Homo sapiens, UniProt P56817)
T1 construct: 6his-tagged full length BACE 1 from SF9 cells; made in house; host or cells: Sf9 insect cells
Assay: BACE1 MR121 protease assay
Format: biochemical
Settings: 30 nM 6his-BACE-1, 300 nM substrate peptide WSEVNLDAEFRC-MR121, Na-acetate pH 4.0, fluorescence
Procedure: Assay plate: 384 well microtiter plate, Corning clear, flat bottom, non binding surface
Assaybuffer: 100 mM Na-acetate pH 4.0, 20 mM EDTA, 0.05% BSA
BACE-1: 6his-tagged full length BACE 1 from SF9 cells
Substrate peptide: WSEVNLDAEFRC-MR121
BACE1 MR121 protease assay
39 μl of a 38 nM 6his-BACE-1 solution in assay buffer (final conc. in the assay: 30 nM) were pipetted into the assay plate. 1 μl of a concentration of a potential inhibitor in dimethylsulfoxide was added to the enzyme and incubated for 10 min. Finally, 10 μl of a 1.5 μM solution of the substrate in assay buffer (final conc. in the assay: 300 nM) was added to start the enzymatic reaction. After strong mixing for 2 min the enzymatic reaction was followed by measuring the fluorescence intensity every two minutes for 15 min on a suitable fluorescence reader. […] The slope was calculated from the linear part of the kinetic as a measure of the activity of BACE-1. A range of concentrations of the potential inhibitor was used to generate data for calculating the concentration of inhibitor resulting in 50% of the effect (e.g. IC50, the concentration of the compound inhibiting the BACE-1 activity by 50%).

T1 sequence (P56817 46-501): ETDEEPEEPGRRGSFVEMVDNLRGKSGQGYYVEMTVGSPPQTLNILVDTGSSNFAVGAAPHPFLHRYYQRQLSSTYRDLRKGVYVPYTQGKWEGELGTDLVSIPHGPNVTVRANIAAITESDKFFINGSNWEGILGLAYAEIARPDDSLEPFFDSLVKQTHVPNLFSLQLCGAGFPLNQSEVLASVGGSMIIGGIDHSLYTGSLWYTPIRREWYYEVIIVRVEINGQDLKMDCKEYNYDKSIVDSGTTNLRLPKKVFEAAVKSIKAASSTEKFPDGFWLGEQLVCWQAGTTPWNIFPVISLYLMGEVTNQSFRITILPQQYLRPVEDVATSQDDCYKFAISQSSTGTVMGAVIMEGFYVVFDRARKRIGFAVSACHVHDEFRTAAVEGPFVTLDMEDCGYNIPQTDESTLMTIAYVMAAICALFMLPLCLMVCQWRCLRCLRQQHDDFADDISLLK

Row | IC50 [nM] | Structure (SMILES)
1 | 60 | COc1cncc(-c2cccc(C3(c4ccc(OC(F)F)c(C)c4)COC(N)=N3)c2)c1 (racemic) [Example 101, (RS)-4-(4-Difluoromethoxy-3-methyl-phenyl)-4-[3-(5-methoxy-pyridin-3-yl)-phenyl]-4,5-dihydro-oxazol-2-ylamine formate]
2 | 210 | Cc1cc(C2(c3cccc(-c4cncc(F)c4)c3)COC(N)=N2)ccc1OC(F)F (racemic) [Example 102, (RS)-4-(4-Difluoromethoxy-3-methyl-phenyl)-4-[3-(5-fluoro-pyridin-3-yl)-phenyl]-4,5-dihydro-oxazol-2-ylamine formate]
3 | 320 | Cc1cncc(-c2cccc(C3(c4ccc(OC(F)F)c(C)c4)COC(N)=N3)c2)c1 (racemic) [Example 103, (RS)-4-(4-Difluoromethoxy-3-methyl-phenyl)-4-[3-(5-methyl-pyridin-3-yl)-phenyl]-4,5-dihydro-oxazol-2-ylamine formate]
4 | 130 | Cc1cnc(F)c(-c2cccc(C3(c4ccc(OC(F)F)c(C)c4)COC(N)=N3)c2)c1 (racemic) [Example 104, (RS)-4-(4-Difluoromethoxy-3-methyl-phenyl)-4-[3-(2-fluoro-5-methyl-pyridin-3-yl)-phenyl]-4,5-dihydro-oxazol-2-ylamine formate]

The next lines start with the compound.

Row | Structure (SMILES) | IC50 [nM]
5 | NC1=NC(c2ccc(OC(F)F)cc2)(c2cccc(-c3cncc(F)c3)c2)CO1 (racemic) [Example 88, (RS)-4-(4-Difluoromethoxy-phenyl)-4-[3-(5-fluoro-pyridin-3-yl)-phenyl]-4,5-dihydro-oxazol-2-ylamine formate] | 370
6 | NC1=NC(c2ccc(OC(F)F)cc2)(c2cccc(-c3cccnc3F)c2)CO1 (racemic) [Example 89, (RS)-4-(4-Difluoromethoxy-phenyl)-4-[3-(2-fluoro-pyridin-3-yl)-phenyl]-4,5-dihydro-oxazol-2-ylamine formate] | 350
7 | COc1cncc(-c2cccc(C3(c4ccc(OC(F)F)cc4)COC(N)=N3)c2)c1 (racemic) [Example 90, (RS)-4-(4-Difluoromethoxy-phenyl)-4-[3-(5-methoxy-pyridin-3-yl)-phenyl]-4,5-dihydro-oxazol-2-ylamine formate] | 150
8 | COc1cncc(-c2cccc(C3(c4ccc(OC)c(F)c4)COC(N)=N3)c2)c1 (racemic) [Example 92, (RS)-4-(3-Fluoro-4-methoxy-phenyl)-4-[3-(5-methoxy-pyridin-3-yl)-phenyl]-4,5-dihydro-oxazol-2-ylamine formate] | 750
9 | Cc1cc(C2(c3cccc(-c4cncc(Cl)c4)c3)COC(N)=N2)ccc1OC(F)F (racemic) [Example 94, (RS)-4-[3-(5-Chloro-pyridin-3-yl)-phenyl]-4-(4-difluoromethoxy-3-methyl-phenyl)-4,5-dihydro-oxazol-2-ylamine formate] | 60
10 | Cc1cc(C2(c3cccc(-c4cccnc4)c3)COC(N)=N2)ccc1OC(F)F (racemic) [Example 97, (RS)-4-(4-Difluoromethoxy-3-methyl-phenyl)-4-(3-pyridin-3-yl-phenyl)-4,5-dihydro-oxazol-2-ylamine formate] | 120
11 | Cc1cc(C2(c3cccc(-c4cccnc4F)c3)COC(N)=N2)ccc1OC(F)F (racemic) [Example 98, (RS)-4-(4-Difluoromethoxy-3-methyl-phenyl)-4-[3-(2-fluoro-pyridin-3-yl)-phenyl]-4,5-dihydro-oxazol-2-ylamine formate] | 150
12 | Cc1cc(C2(c3cccc(-c4cccc(Cl)c4)c3)COC(N)=N2)ccc1OC(F)F (racemic) [Example 99, (RS)-4-(3′-Chloro-biphenyl-3-yl)-4-(4-difluoromethoxy-3-methyl-phenyl)-4,5-dihydro-oxazol-2-ylamine formate] | 170
13 | Cc1cc(C2(c3cccc(-c4cncnc4)c3)COC(N)=N2)ccc1OC(F)F (racemic) [Example 100, (RS)-4-(4-Difluoromethoxy-3-methyl-phenyl)-4-(3-pyrimidin-5-yl-phenyl)-4,5-dihydro-oxazol-2-ylamine formate] | 120
